This assay concerns the target Recombinant KAT6A/MOZ (488-778) protein (Homo sapiens (Human), UniProt Q92794). Description: KAT6A AlphaLISA Inhibition Screening Assay. It counts as biochemical. The settings on record: for Average Kat6A % inhibition @ 1 μM / inhibition at 1 µM: 1 μM test compound; for Average Kat6A % inhibition @ 10 μM / inhibition at 10 µM: 10 μM test compound; for inhibition at 1 µM: read-out: Average Kat6A % inhibition @ 1 μM; for inhibition at 10 µM: read-out: Average Kat6A % inhibition @ 10 μM. The protocol:
The Kat6a inhibitory activity of test compounds was determined using an Alpha Screen-based detection method. The assay reactions were conducted in a volume of 10 μL in Alpha Plate, White 384 well plate (cat #6008280, Perkin Elmer). The enzymatic reactions were performed in assay buffer pH 8.0 (50 mM Tris-HCl, 0.1 mM EDTA, 0.01% Tween-20, 1 mM Dithiothreitol, 0.1% BSA (fatty acid free) and 330 nM TSA (Trichostatin A)). 10 μL reaction volume consisting of 25 nM of Recombinant KAT6A/MOZ (488-778) protein (Active motif, Catalog #81223), 400 nM Acetyl coenzyme A (Catalog #A2056, Sigma), 200 nM of Histone H3 peptide [(amino acids 1-21), biotin-labeled (BPS Biosciences, Catalog #52011)]. Test compounds were screened at different doses starting with 10 μM, 3 fold dilution and 10 point Dose response curve. Enzyme and compounds solution were pre-incubated in assay plate for 60 or 10 min at room temperature then substrate and Acetyl coenzyme A solution were added to the plate. After addition, the plate was sealed with adhesive seals and incubated for 120 minutes at room temperature.
After 120 minutes of incubation, […] of AlphaLISA anti-acetyl-Lysine acceptor beads (Perkin Elmer, Catalog #AL143C) were added to the plate and it was incubated for 60 minutes at room temperature. Then […] of Alpha Streptavidin donor beads (Perkin Elmer, Catalog #6760002S) were added to the plate which was further incubated for 60 minutes at room temperature. After incubation, the alpha signal was recorded by using Perkin Elmer Envision multi-mode reader. Percent inhibition of enzyme activity by test compounds were determined relative to vehicle control.
(In general: Alpha assays give light when donor and acceptor beads are brought close together.)

Chain of Recombinant KAT6A/MOZ (488-778) protein (Q92794 488-778): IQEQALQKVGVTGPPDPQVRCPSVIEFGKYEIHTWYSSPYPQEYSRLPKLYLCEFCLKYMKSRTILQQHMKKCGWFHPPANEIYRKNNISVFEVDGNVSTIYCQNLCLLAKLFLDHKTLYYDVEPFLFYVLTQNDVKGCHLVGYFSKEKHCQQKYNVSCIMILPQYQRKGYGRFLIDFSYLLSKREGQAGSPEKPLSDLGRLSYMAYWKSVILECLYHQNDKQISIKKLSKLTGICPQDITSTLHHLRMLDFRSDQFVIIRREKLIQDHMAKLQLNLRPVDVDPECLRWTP

Consider `COC(=O)NCc1cnn(Cc2cc3onc(NS(=O)(=O)c4cc(C)cc5cccnc45)c3c3c2CCCO3)c1` [Syn. Ex. 132, methyl ((1-((9-((6-methylquinoline)-8-sulfonamido)-3,4-dihydro-2H-chromeno[8,7-d]isoxazol-5-yl)methyl)-1H-pyrazol-4-yl)methyl)carbamate], for which the “Average Kat6A % inhibition @ 1 μM” value is on record as 100% and the “Average Kat6A % inhibition @ 10 μM” value was determined as 99%.
For `CCc1ccc(OC)c(S(=O)(=O)Nc2noc3cc(Oc4ncc(CNC(=O)OC)s4)c(OC)cc23)c1` [Syn. Ex. 149, methyl —{N}—[[2-[[3-[(5-ethyl-2-methoxy-phenyl)sulfonylamino]-5-methoxy-1,2-benzoxazol-6-yl]oxy]thiazol-5-yl]methyl]carbamate], in that order: 101% and 102%.
With `C=C(F)C(=O)NCc1cnc(Oc2cc(OC)c3c(NS(=O)(=O)c4cc5c(cc4OC)CCC5)noc3c2)s1` [Syn. Ex. 143, 2-fluoro-N-((2-((4-methoxy-3-((6-methoxy-2,3-dihydro-1H-indene)-5-sulfonamido)benzo[d]isoxazol-6-yl)oxy)thiazol-5-yl)methyl)acrylamide], the “Average Kat6A % inhibition @ 1 μM” value worked out at 101% and the “Average Kat6A % inhibition @ 10 μM” value is 99%.
For orientation: inhibition means the relative decrease from the control value, in per cent. For `C=C(F)C(=O)NCc1cnn(Cc2cc(OC)c3c(NS(=O)(=O)c4cc(CC)ccc4OCC(=N)NO)noc3c2)c1` [Syn. Ex. 118, N-((1-((3-((5-ethyl-2-(2-(hydroxyamino)-2-iminoethoxy)phenyl)sulfonamido)-4-methoxybenzo[d]isoxazol-6-yl)methyl)-1H-pyrazol-4-yl)methyl)-2-fluoroacrylamide], the inhibition at 1 µM stood at 97% and the inhibition at 10 µM was 100%.
On the same counts, the results for `CCc1ccc(OCCNC(C)=O)c(S(=O)(=O)Nc2noc3cc(Cn4cc(CNC(=O)OC)cn4)cc(OC)c23)c1` [Syn. Ex. 81, methyl ((1-((3-((2-(2-acetamidoethoxy)-5-ethylphenyl)sulfonamido)-4-methoxybenzo[d]isoxazol-6-yl)methyl)-1H-pyrazol-4-yl)methyl)carbamate] are 91% and 99%.
For `C=C(F)C(=O)NCc1cnn(Cc2cc(OC)c3c(NS(=O)(=O)c4ccccc4OC)noc3c2)c1` [Syn. Ex. 40, 2-fluoro-N-((1-((4-methoxy-3-((2-methoxyphenyl)sulfonamido)benzo[d]isoxazol-6-yl)methyl)-1H-pyrazol-4-yl)methyl)acrylamide], the inhibition at 1 µM came out at 99% and the inhibition at 10 µM came out at 99%.
`COC(=O)NCc1cnn(Cc2cc3c4c(noc4c2)NS(=O)(=O)c2c(OC)cccc2OCCCCCO3)c1` [Syn. Ex. 138, methyl ((1-((14-methoxy-15,15-dioxido-6,7,8,9-tetrahydro-5H,16H-4,10,18-trioxa-15-thia-16,17-diazabenzo[11,12]cyclotetradeca[1,2,3-cd]inden-2-yl)methyl)-1H-pyrazol-4-yl)methyl)carbamate]: the “Average Kat6A % inhibition @ 1 μM” value worked out at 111% and the “Average Kat6A % inhibition @ 10 μM” value was 114%.
In the case of `CCc1ccc(OC)c(S(=O)(=O)Nc2noc3cc(Oc4ccc(N)cn4)cc(OC)c23)c1` [Syn. Ex. 109, N-(6-((5-aminopyridin-2-yl)oxy)-4-methoxybenzo[d]isoxazol-3-yl)-5-ethyl-2-methoxybenzenesulfonamide], the inhibition at 1 µM was determined as 95% and the inhibition at 10 µM was 98%.
Turning to `COC(=O)NCc1cnn(Cc2cc(OC)c3c(NS(=O)(=O)c4cccc5cc(C)cnc45)noc3c2)c1` [Syn. Ex. 129, methyl ((1-((4-methoxy-3-((3-methylquinoline)-8-sulfonamido)benzo[d]isoxazol-6-yl)methyl)-1H-pyrazol-4-yl)methyl)carbamate], the “Average Kat6A % inhibition @ 1 μM” value is 102% and the “Average Kat6A % inhibition @ 10 μM” value was determined as 102%.
`CCc1ccc(OCc2ncc[nH]2)c(S(=O)(=O)Nc2noc3cc(Cn4cc(CNC(=O)OC)cn4)cc(OC)c23)c1` [Syn. Ex. 116, methyl ((1-((3-((2-((1H-imidazol-2-yl)methoxy)-5-ethylphenyl)sulfonamido)-4-methoxybenzo[d]isoxazol-6-yl)methyl)-1H-pyrazol-4-yl)methyl)carbamate]: the inhibition at 1 µM worked out at 100% and the inhibition at 10 µM is 100%.
As for `C#CC(=O)N1Cc2cnn(Cc3cc(OC)c4c(NS(=O)(=O)c5ccc(C#N)cc5OC)noc4c3)c2C1` [Syn. Ex. 26, 4-cyano-2-methoxy-N-(4-methoxy-6-((5-propioloyl-5,6-dihydropyrrolo[3,4-c]pyrazol-1(4H)-yl)methyl)benzo[d]isoxazol-3-yl) benzenesulfonamide], the “Average Kat6A % inhibition @ 1 μM” value is recorded as 99% and the “Average Kat6A % inhibition @ 10 μM” value stood at 100%.
Take `C=C(F)C(=O)NCc1cnn(Cc2cc(OC)c3c(NS(=O)(=O)c4cc(CC)ccc4OCc4ccccc4)noc3c2)c1` [Syn. Ex. 92, N-((1-((3-((2-(benzyloxy)-5-ethylphenyl)sulfonamido)-4-methoxybenzo[d]isoxazol-6-yl)methyl)-1H-pyrazol-4-yl)methyl)-2-fluoroacrylamide]: the inhibition at 1 µM came out at 100% and the inhibition at 10 µM is 100%.
As to `CCc1ccc(OCc2ncon2)c(S(=O)(=O)Nc2noc3cc(Cn4cc(CNC(=O)OC)cn4)cc(OC)c23)c1` [Syn. Ex. 74, methyl ((1-((3-((2-((1,2,4-oxadiazol-3-yl)methoxy)-5-ethylphenyl)sulfonamido)-4-methoxybenzo[d]isoxazol-6-yl)methyl)-1H-pyrazol-4-yl)methyl)carbamate], the inhibition at 1 µM was 100% and the inhibition at 10 µM turned out to be 100%.
Regarding `CCc1ccc(OCC(=O)O)c(S(=O)(=O)Nc2noc3cc(Cn4cc(CNC(=O)OC)cn4)cc(OC)c23)c1` [Syn. Ex. 62, 2-(4-ethyl-2-(N-(4-methoxy-6-((4-(((methoxycarbonyl)amino)methyl)-1H-pyrazol-1-yl)methyl)benzo[d]isoxazol-3-yl)sulfamoyl)phenoxy)acetic acid], the inhibition at 1 µM turned out to be 100% and the inhibition at 10 µM amounted to 100%.
As to `CC#CC(=O)NCc1cnn(Cc2cc(OC)c3c(NS(=O)(=O)c4cc(OC)ccc4OC)noc3c2)c1` [Syn. Ex. 58, N-((1-((3-((2,5-dimethoxyphenyl)sulfonamido)-4-methoxybenzo[d]isoxazol-6-yl)methyl)-1H-pyrazol-4-yl)methyl)but-2-ynamide], the inhibition at 1 µM turned out to be 91% and the inhibition at 10 µM is 97%.
For the compound `COC(=O)NCc1cnn(Cc2cc(OC)c3c(NS(=O)(=O)c4c(OC)ccnc4OC)noc3c2)c1` [Syn. Ex. 86, methyl ((1-((3-((2,4-dimethoxypyridine)-3-sulfonamido)-4-methoxybenzo[d]isoxazol-6-yl)methyl)-1H-pyrazol-4-yl)methyl)carbamate], the “Average Kat6A % inhibition @ 1 μM” value was determined as 86% and the “Average Kat6A % inhibition @ 10 μM” value came out at 100%.
For the compound `CCc1ccc(OCc2cccnc2)c(S(=O)(=O)Nc2noc3cc(Cn4cc(CNC(=O)OC)cn4)cc(OC)c23)c1` [Syn. Ex. 123, methyl ((1-((3-((5-ethyl-2-(pyridin-3-ylmethoxy)phenyl)sulfonamido)-4-methoxybenzo[d]isoxazol-6-yl)methyl)-1H-pyrazol-4-yl)methyl)carbamate], the inhibition at 1 µM was 100% and the inhibition at 10 µM was found to be 100%.
Turning to `C=C(F)C(=O)NCc1cnn(Cc2cc(OC)c3c(NS(=O)(=O)c4c(OC)ccnc4OC)noc3c2)c1` [Syn. Ex. 87, N-((1-((3-((2,4-dimethoxypyridine)-3-sulfonamido)-4-methoxybenzo[d]isoxazol-6-yl)methyl)-1H-pyrazol-4-yl)methyl)-2-fluoroacrylamide], the “Average Kat6A % inhibition @ 1 μM” value was 95% and the “Average Kat6A % inhibition @ 10 μM” value is listed as 100%.
On to `C=C(F)C(=O)NCc1cnn(Cc2cc(OC)c3c(NS(=O)(=O)c4cc(CC)ccc4OCC(=O)N4CCOCC4)noc3c2)c1` [Syn. Ex. 68, N-((1-((3-((5-ethyl-2-(2-morpholino-2-oxoethoxy)phenyl)sulfonamido)-4-methoxybenzo[d]isoxazol-6-yl)methyl)-1H-pyrazol-4-yl)methyl)-2-fluoroacrylamide], for which the inhibition at 1 µM was 96% and the inhibition at 10 µM came to 100%.
For `C=C(F)C(=O)NCc1cnn(Cc2cc(OC)c3c(NS(=O)(=O)c4cc(CC)ccc4OCCNC(=O)OC)noc3c2)c1` [Syn. Ex. 79, methyl (2-(4-ethyl-2-(N-(6-((4-((2-fluoroacrylamido)methyl)-1H-pyrazol-1-yl)methyl)-4-methoxybenzo[d]isoxazol-3-yl)sulfamoyl)phenoxy)ethyl)carbamate], in that order: 99% and 100%.
For `C#CC(=O)N1CCc2cnn(Cc3cc(OC)c4c(NS(=O)(=O)c5cc(CC)ccc5OC)noc4c3)c2CC1` [Syn. Ex. 9, 5-ethyl-2-methoxy-N-(4-methoxy-6-((6-propioloyl-5,6,7,8-tetrahydropyrazolo[3,4-d]azepin-1(4H)-yl)methyl)benzo[d]isoxazol-3-yl)benzenesulfonamide], in that order: 61% and 100%.

The record behind these values is patent publication US20250122182A1 (Isosterix, Inc., priority 2023, published 2025).
